Measurements reported in PMC8038090, “Xanthine Oxidase Inhibitors from Filipendula ulmaria (L.) Maxim. and Their Efficient Detections by HPTLC and HPLC Analyses” (Molecules, 2021).
≈ marks a conversion by molar mass, not a printed value. Entries after “also recorded” stand apart in the source; their conditions may differ. Read-outs that look alike come from different tables or passages of the source.

Key:
[1] = system: xanthine oxidase (XO); assay: HPTLC xanthine oxidase bioautography (NBT/formazan); format: biochemical; details: for XO inhibitory activity on HPTLC bioautography plate (spot intensity): white/yellow spots on purple background, 1 mg/mL, 20 µL applied
Method: As the spectrophotometer analysis monitors the production of uric acid from xanthine, the HPTLC method measures the production of the superoxide radical anion formed during the regeneration of an enzyme. In contact with superoxide radical anion, the Nitro Blue Tetrazolium (NBT) is transformed in formazan (purple), inducing a change in the color of the reaction mixture. The inhibitors will appear as white/yellow spots under a purple background.
The samples were prepared by dissolving 1 mg of each fraction in 1 mL of methanol, and 20 µL was applied on 8 mm bands, 8 mm from the lower edge of the plate. The mobile phase was a mixture of ethyl acetate, dichloromethane, formic acid, acetic acid, and water (100:25:10:10:11). […] After development, plates were dried under a stream of cool air for 10 min.
The XO inhibition assay was conducted using the method developed by Ramallo [32], with slight modifications. After migration, the plates were dipped into a solution of PBS 120 mM containing xanthine oxidase (0.1 U/mL), EDTA (1 mM), and NBT (1 mM) in a sterilizer, at 37 °C in the dark for 30 min. The plates were then dipped into a solution of PBS 120 mM containing xanthine (1.5 mM) in a sterilizer, at 37 °C for 30 min in the dark.

[2] = molecular target: xanthine oxidase (XO) (Bos taurus, UniProt P80457); assay: Xanthine oxidase inhibitory activity by UV spectroscopy (uric acid formation at 293 nm); format: biochemical
Sequence of xanthine oxidase (XO) (Bos taurus, UniProt P80457) (P80457 2-1332 limits assumed): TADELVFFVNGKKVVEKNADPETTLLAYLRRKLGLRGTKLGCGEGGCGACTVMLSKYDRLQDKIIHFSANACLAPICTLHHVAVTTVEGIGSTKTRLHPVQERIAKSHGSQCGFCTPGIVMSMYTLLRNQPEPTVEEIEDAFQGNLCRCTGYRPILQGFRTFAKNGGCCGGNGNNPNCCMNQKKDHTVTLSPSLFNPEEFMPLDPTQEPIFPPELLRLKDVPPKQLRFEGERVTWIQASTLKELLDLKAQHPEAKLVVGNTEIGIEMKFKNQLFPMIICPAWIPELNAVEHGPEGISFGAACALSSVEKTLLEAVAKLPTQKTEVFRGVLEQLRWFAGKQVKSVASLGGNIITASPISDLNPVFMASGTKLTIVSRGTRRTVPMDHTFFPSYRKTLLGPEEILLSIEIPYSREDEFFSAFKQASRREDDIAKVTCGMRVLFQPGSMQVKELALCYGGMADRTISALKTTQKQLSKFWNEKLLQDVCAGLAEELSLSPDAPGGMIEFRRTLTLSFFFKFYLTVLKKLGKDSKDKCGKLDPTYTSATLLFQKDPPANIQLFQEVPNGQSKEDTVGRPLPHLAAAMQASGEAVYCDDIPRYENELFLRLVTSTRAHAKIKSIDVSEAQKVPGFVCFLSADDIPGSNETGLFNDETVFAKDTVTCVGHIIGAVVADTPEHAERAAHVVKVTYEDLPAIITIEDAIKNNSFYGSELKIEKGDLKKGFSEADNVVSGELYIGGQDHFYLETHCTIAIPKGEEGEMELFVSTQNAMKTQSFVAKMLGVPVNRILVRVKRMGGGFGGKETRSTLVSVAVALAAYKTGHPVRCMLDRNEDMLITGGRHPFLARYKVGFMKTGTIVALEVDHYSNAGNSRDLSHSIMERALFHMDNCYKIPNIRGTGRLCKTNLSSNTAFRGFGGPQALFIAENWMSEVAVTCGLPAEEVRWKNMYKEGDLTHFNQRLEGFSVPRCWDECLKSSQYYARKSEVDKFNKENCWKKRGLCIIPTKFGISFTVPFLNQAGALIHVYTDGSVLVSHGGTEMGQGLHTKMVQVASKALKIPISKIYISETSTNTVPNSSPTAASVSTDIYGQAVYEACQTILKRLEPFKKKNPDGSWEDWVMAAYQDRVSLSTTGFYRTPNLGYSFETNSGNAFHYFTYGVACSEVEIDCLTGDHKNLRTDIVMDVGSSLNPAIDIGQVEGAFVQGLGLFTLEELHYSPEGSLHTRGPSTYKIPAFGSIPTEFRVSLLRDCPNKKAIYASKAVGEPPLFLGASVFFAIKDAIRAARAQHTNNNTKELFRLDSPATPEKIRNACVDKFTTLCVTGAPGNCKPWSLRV
Method: Inhibition of XO was conducted according to the procedure described by Sowndhararajan et al., with slight modifications. […] Prior to the addition of XO solution in the mixture, all the components were incubated at 25 °C in the dark for 5 min. […] The enzymatic activity assay without extract was defined as maximum relative activity, and the percentage of inhibition was calculated according to the method of Yan et al. IC50 values were determined using linear regression and are expressed in µg/mL of plant extract ± standard deviation. All measurements were performed in triplicate (n = 3).

[3] = system: xanthine oxidase (XO); assay: Measurement of XO interaction by HPLC (crude extract incubated with and without enzyme); format: binding; details: crude extract 1 mg/mL, XO 0.1 U/mL, 1 h; for Interaction with XO (HPLC subtraction, negative peaks): HPLC-UV 254 nm; for XO binding (%): estimated from difference of peak area with and without XO
Method: The identification of bioactive compounds which form in a complex mixture by rapid screening, without the requirement of purification, is a challenging approach. […] Based on the method described by Wang, we incubated the enzyme with the crude extract and carried out HPLC analyses on the filtrate after centrifugation.
The measurement of XO interaction was conducted according to Zhang’s procedure, with some modifications. The assay mixture contained 10 mL of crude extract at 1 mg/mL in water, and 200 µL of xanthine oxidase (final concentration of 0.1 U/mL), or 200 µL of water. Prior to the HPLC analysis, the solution was mixed for one hour at room temperature in the dark. After one hour, the mixture was centrifuged at 4500× g […] and supernatant was filtered through a 0.45 µm PTFE filter. […] Potential inhibitors were identified after subtraction of the chromatogram obtained from the assay with and without XO (negative peaks).

[4] = Stability in solution for the XO assay; format: physicochemical
[5] = molecular target: xanthine oxidase (XO); design: method as in doi:10.5539/jfr.v1n3p257, doi:10.1016/j.bjp.2015.08.013; details: described to possess no inhibitory activity; read-out: IC50, XO inhibition (described); cited from earlier work
[6] = Solubility for the XO assay; format: physicochemical; details: in water or DMSO
[7] = UV spectroscopy, xanthine 56 µM, XO 0.01 U/mL, 25 °C, n = 3, read-out: IC50 (µM), XO inhibition
[8] = UV spectroscopy, xanthine 56 µM, XO 0.01 U/mL, 25 °C, n = 3, read-out: IC50 (µg/mL), XO inhibition (converted)

SMILES	XO inhibitory activity on HPTLC bioautography plate (spot intensity) [1]	IC50 [2, 7] [µM]	IC50 [2, 8] [µM]	Interaction with XO (HPLC subtraction, negative peaks) [3]	XO binding (%) [3]	also measured
O=c1c(O[C@@H]2O[C@H](CO)[C@@H](O)[C@H](O)[C@H]2O)c(-c2ccc(O)c(O)c2)oc2cc(O)cc(O)c12 [Isoquercitrin]	weak interactions	> 50	> 215	did not seem to interact		
O=C(OC1O[C@@H]2COC(=O)c3cc(O)c(O)c(O)c3-c3c(cc(O)c(O)c3O)C(=O)O[C@H]2[C@H](OC(=O)c2cc(O)c(O)c(O)c2)[C@H]1OC(=O)c1cc(O)c(O)c(O)c1)c1cc(O)c(O)c(O)c1 (stereo partly drawn) [Tellimagrandin II]	weak activity			strongest interaction	around 30%	Stability on the HPTLC plate [1]: decompose on the plate; Stability in solution [4]: decomposed in the solution
O=c1c(O)c(-c2ccc(O[C@@H]3O[C@H](CO)[C@@H](O)[C@H](O)[C@H]3O)cc2)oc2cc(O)cc(O)c12 [Kaempferol-4′-O-glucoside]				significant interactions		
O=C(O)c1cc(O)c(O)c(O)c1 [Gallic acid]			> 1760			IC50 [2]: > 50 µM; IC50 [5]: > 100 µM
O=c1c(O)c(-c2ccc(O)cc2)oc2cc(O)cc(O)c12 [Kaempferol]	quite strong inhibitors; also recorded: strong interactions			seem to interact		
O=c1c(O[C@@H]2O[C@H](CO)[C@H](O)[C@H](O)[C@H]2O)c(-c2ccc(O)c(O)c2)oc2cc(O)cc(O)c12 [Hyperoside]	weak interactions	> 50	> 215	did not seem to interact		
O=c1c(O)c(-c2ccc(O[C@@H]3O[C@H](CO)[C@@H](O)[C@H](O)[C@H]3O)c(O)c2)oc2cc(O)cc(O)c12 [Spiraeoside]	quite strong inhibitors; also recorded: strong interactions	0.66 ± 0.02	0.668	significant interactions	around 30%	XO inhibitory activity relative to allopurinol ([2]; activity higher than allopurinol): around 25 times
O=c1c(O)c(-c2ccc(O)c(O)c2)oc2cc(O)cc(O)c12 [Quercetin]	quite strong inhibitors; also recorded: strong interactions			seem to interact	~50%	
O=C(O[C@@H]1O[C@@H]2COC(=O)c3cc(Oc4c(C(=O)O[C@@H]5O[C@@H]6COC(=O)c7cc(O)c(O)c(O)c7-c7c(cc(O)c(O)c7O)C(=O)O[C@H]6[C@H](OC(=O)c6cc(O)c(O)c(O)c6)[C@H]5OC(=O)c5cc(O)c(O)c(O)c5)cc(O)c(O)c4O)c(O)c(O)c3-c3c(cc(O)c(O)c3O)C(=O)O[C@H]2[C@H](OC(=O)c2cc(O)c(O)c(O)c2)[C@H]1OC(=O)c1cc(O)c(O)c(O)c1)c1cc(O)c(O)c(O)c1 [Rugosin D]	strong interactions	35.7 ± 2.1		strongest interaction	around 60%	IC50 (µg/mL), XO inhibition ([2]; UV spectroscopy, xanthine 56 µM, XO 0.01 U/mL, 25 °C, n = 3): 67.0 ± 1.1 µg/mL (≈ 35.7 µM)
O=C(O)c1ccccc1O [Salicylic acid]		> 50	> 2170			IC50 [5]: > 100 µM
O=c1oc2c(O)c(O)cc3c(=O)oc4c(O)c(O)cc1c4c23 [Ellagic acid]	weak activity					Solubility [6]: not soluble; Stability on the HPTLC plate [1]: decompose on the plate
